We go through 24 molecules from US7268152B2, “Glucocorticoid mimetics, methods of making them, pharmaceutical compositions, and uses thereof” (Boehringer Ingelheim Pharmaceuticals, Inc., priority 2002, dated 2007).

For the test, the system named is glucocorticoid receptor. Put plainly: One or more of the above assays (GR binding and GR cell assays; not specified which). Format: cell-based. The settings on record: in one or more of the above assays. How it is done:
This assay uses fluorescence polarization (FP) to quantitate the ability of test compounds to compete with tetramethyl rhodamine (TAMRA)-labeled dexamethasone for binding to a human glucocorticoid receptor (GR) complex prepared from an insect expression system. The assay buffer was: 10 mM TES, 50 mM KCl, 20 mM Na2MoO4.2H2O, 1.5 mM EDTA, 0.04% w/v CHAPS, 10% v/v glycerol, 1 mM dithiothreitol, pH 7.4. Test compounds were dissolved to 1 mM in neat DMSO and then further diluted to 10×assay concentration in assay buffer supplemented with 10% v/v DMSO. Test compounds were serially diluted at 10×assay concentrations in 10% DMSO-containing buffer in 96-well polypropylene plates. […] Positive controls were reaction mixtures containing no test compound; negative controls (blanks) were reaction mixtures containing 0.7 μM to 2 μM dexamethasone. […] IC50 values were determined by iterative non-linear curve fitting of the FP signal data to a 4-parameter logistic equation.
B. Glucocorticoid Receptor Cell Assays
1. Induction of Aromatase in Fibroblasts (Cell Assay for Transactivation)
Dexamethasone, a synthetic ligand to the glucocorticoid receptor (GR), induces expression of aromatase in human foreskin fibroblast cells. The activity of aromatase is measured by the conversion of testosterone to estradiol in culture media.
On the day of the experiment, the media in the wells is replaced with fresh media. Cells are treated with test compounds to final concentrations of 10^−5 M to 10 ^−8 M, and testosterone to a final concentration of 300 ng/mL. Each well has a total volume of 100 μL. Samples are made in duplicates. Control wells include: (a) wells that receive testosterone only, and (b) wells that receive testosterone plus 2 μM of dexamethasone to provide maximum induction of aromatase. Plates are incubated at 37° C. overnight (15 to 18 hours), and supernatants are harvested at the end of incubation. […] The amount of estradiol is inversely proportional to the ELISA signals in each well. The extent of aromatase induction by test compounds is expressed as a relative percentage to dexamethasone. EC50 values of test compounds are derived by non-linear curve fitting.
2. Inhibition of IL-6 Production in Fibroblasts (Cell Assay for Transrepression)
Human foreskin fibroblast cells produce IL-6 in response to stimulation by pro-inflammatory cytokine IL-1.
On the next day, media in the wells is replaced with fresh media. Cells are treated with IL-1 (rhIL-1α, R&D Systems Cat. No. 200-LA) to a final concentration of 1 ng/mL, and with test compounds to final concentrations of 10 ^−5 M to 10 ^−8 M, in a total volume of 200 μL per well. Samples are done in duplicates. […] Positive control wells receive IL-1 only and represent maximum (or 100%) amount of IL-6 production. Plates are incubated at 37° C. overnight (15 to 18 hours), and supernatants are harvested at the end of incubation. IL-6 levels in the supernatants are determined by the ELISA kits for IL-6 (MedSystems Diagnostics GmbH, Vienna, Austria, Cat. No. BMS213TEN) according to manufacture's instructions. The extent of inhibition of IL-6 by test compounds is expressed in percentage relative to positive controls. IC50 values of test compounds are derived by non-linear curve fitting.
Evaluation of agonist or antagonist activity of compounds binding to the glucocorticoid receptor may be determined by any of the assays.
3. Modulation of Tyrosine Aminotransferase (TAT) Induction in Rat Hepatoma Cells
Testing of compounds for agonist or antagonist activity in induction of tyrosine aminotransferase (TAT) in rat hepatoma cells.
H4-II-E-C3 cells were incubated overnight in 96 well plates (20,000 cells/100 μL/well) in MEM medium containing 10% heat inactivated FBS and 1% nonessential amino acids. On the next day, cells were stimulated with the indicated concentrations of dexamethasone or test compound (dissolved in DMSO, final DMSO concentration 0.2%) for 18 hours. Control cells were treated with 0.2% DMSO.
For `CC(C)(CC(O)(Cc1ccc(C#N)cc1Cl)C(F)(F)F)c1cccc(F)c1` (stereo not drawn) [3-Chloro-4-[4-(3-fluorophenyl)-2-hydroxy-4-methyl-2-trifluoromethylpentyl]benzonitrile], the “activity as agonists of the glucocorticoid receptor function” value (from here on “activity”) is reported as “activity as agonists”. The entry for `CC(C)(CC(O)(Cc1ccc(C#N)cc1Cl)C(F)(F)F)c1cc(O)cc(O)c1` (stereo not drawn) [3-Chloro-4-[4-(3,5-dihydroxyphenyl)-2-hydroxy-4-methyl-2-trifluoromethylpentyl]benzonitrile] is “activity as agonists”; for `COc1ccc(F)cc1C(C)(C)CC(O)(Cc1ccc(/C(C)=N/O)cc1Cl)C(F)(F)F` (stereo not drawn) [1-{3-Chloro-4-[4-(5-fluoro-2-methoxyphenyl)-2-hydroxy-4-methyl-2-trifluoromethylpentyl]phenyl}ethanone oxime] it is “activity as agonists”.

For the molecule `COc1ccc(F)cc1C(C)(C)CC(O)(Cc1cc(C)c(C#N)c(C)c1)C(F)(F)F` (stereo not drawn) [4-[4-(5-Fluoro-2-methoxyphenyl)-2-hydroxy-4-methyl-2-trifluoromethylpentyl]-2,6-dimethylbenzonitrile], the “activity” value is recorded as “activity as agonists”. The entry for `CC(C)(CC(O)(Cc1ccc(C#N)cc1Cl)C(F)(F)F)c1cc(F)cc2c1OCC2` (stereo not drawn) [3-Chloro-4-[4-(5-fluoro-2,3-dihydrobenzofuran-7-yl)-2-hydroxy-4-methyl-2-trifluoromethylpentyl]benzonitrile] is “activity as agonists”; for `Cc1cc(C)c(C#N)c(CC(O)(CC(C)(C)c2cc(F)ccc2O)C(F)(F)F)c1` (stereo not drawn) [2-[4-(5-Fluoro-2-hydroxyphenyl)-2-hydroxy-4-methyl-2-trifluoromethylpentyl]-4,6-dimethylbenzonitrile] it is “activity as agonists”. On to `COc1ccc(F)cc1C(C)(C)CC(O)(Cc1ccc(CO)cc1Cl)C(F)(F)F` (stereo not drawn) [2-(2-Chloro-4-hydroxymethylbenzyl)-1,1,1-trifluoro-4-(5-fluoro-2-methoxyphenyl)-4-methylpentan-2-ol], for which the “activity” value was “activity as agonists”. For the molecule `Cc1cc2c(c(C(C)(C)CC(O)(Cc3ccc(C#N)cc3Cl)C(F)(F)F)c1)OCC2` (stereo not drawn) [3-Chloro-4-[2-hydroxy-4-methyl-4-(5-methyl-2,3-dihydrobenzofuran-7-yl)-2-trifluoromethylpentyl]benzonitrile], the “activity” value is given as “activity as agonists”. On to `Cc1ccc(C(C)(C)CC(O)(Cc2ccc(C#N)cc2Cl)C(F)(F)F)cc1` (stereo not drawn) [3-Chloro-4-(2-hydroxy-4-methyl-4-p-tolyl-2-trifluoromethylpentyl)benzonitrile], for which the “activity” value is on record as “activity as agonists”. Turning to `CC(C)(CC(O)(Cc1cc(C(F)(F)F)cc(Cl)c1F)C(F)(F)F)c1cc(Br)cc2c1OCC2` (stereo not drawn) [4-(5-Bromo-2,3-dihydrobenzofuran-7-yl)-2-(3-chloro-2-fluoro-5-trifluoromethylbenzyl)-1,1,1-trifluoro-4-methylpentan-2-ol], the “activity” value is “activity as agonists”. The entry for `COc1c(C(C)(C)CC(O)(Cc2ccc(C#N)cc2Cl)C(F)(F)F)ccc2ccccc12` (stereo not drawn) [3-Chloro-4-[2-hydroxy-4-(1-methoxynaphthalen-2-yl)-4-methyl-2-trifluoromethylpentyl]benzonitrile] is “activity as agonists”.

In the case of `N#Cc1ccc(CC(O)(CC2(c3cc(F)ccc3Cl)CCC2)C(F)(F)F)c(Cl)c1` (stereo not drawn) [3-Chloro-4-{2-[1-(2-chloro-5-fluorophenyl)cyclobutylmethyl]-3,3,3-trifluoro-2-hydroxypropyl}benzonitrile], the “activity” value is “activity as agonists”. The entry for `N#Cc1ccc(CC(O)(CC2(c3cc(F)ccc3O)CC2)C(F)(F)F)c(Cl)c1` (stereo not drawn) [3-Chloro-4-{3,3,3-trifluoro-2-[1-(5-fluoro-2-hydroxyphenyl)cyclopropylmethyl]-2-hydroxypropyl}benzonitrile] is “activity as agonists”.

In the case of `COc1ccc(F)cc1C(C)(C)CC(O)(Cc1cc(Cl)cc(Cl)c1Cl)C(F)(F)F` (stereo not drawn) [1,1,1-Trifluoro-4-(5-fluoro-2-methoxyphenyl)-4-methyl-2-(2,3,5-trichlorobenzyl)pentan-2-ol], the “activity” value is “activity as agonists”. Consider `CC(C)(CC(O)(Cc1cc(C(F)(F)F)cc(Cl)c1F)C(F)(F)F)c1cc([N+](=O)[O-])cc2c1OCC2` (stereo not drawn) [2-(3-Chloro-2-fluoro-5-trifluoromethylbenzyl)-1,1,1-trifluoro-4-methyl-4-(5-nitro-2,3-dihydrobenzofuran-7-yl)pentan-2-ol], for which the “activity” value is reported as “activity as agonists”.

Turning to `CC(C)(CC(O)(Cc1ccc(C#N)cc1Cl)C(F)(F)F)c1cc(C#N)cc2c1OCC2` (stereo not drawn) [7-[3-(2-Chloro-4-cyanobenzyl)-4,4,4-trifluoro-3-hydroxy-1,1-dimethylbutyl]-2,3-dihydrobenzofuran-5-carbonitrile], the “activity” value is on record as “activity as agonists”. The entry for `COc1ccc(F)cc1C(C)(C)CC(O)(Cc1ccc(Cl)cc1)C(F)(F)F` (stereo not drawn) [2-(4-Chlorobenzyl)-1,1,1-trifluoro-4-(5-fluoro-2-methoxyphenyl)-4-methylpentan-2-ol] is “activity as agonists”; for `COc1cc(OC)cc(C(C)(C)CC(O)(Cc2ccc(C#N)cc2Cl)C(F)(F)F)c1` (stereo not drawn) [3-Chloro-4-[4-(3,5-dimethoxyphenyl)-2-hydroxy-4-methyl-2-trifluoromethylpentyl]benzonitrile] it is “activity as agonists”. As for `COc1ccc(F)cc1C(C)(C)CC(O)(Cc1ccc(Cl)c(Cl)c1)C(F)(F)F` (stereo not drawn) [2-(3,4-Dichlorobenzyl)-1,1,1-trifluoro-4-(5-fluoro-2-methoxyphenyl)-4-methylpentan-2-ol], the entry is “activity as agonists”; as for `COc1ccc(F)cc1C1(CC(O)(Cc2ccc(C#N)cc2Cl)C(F)(F)F)CC1` (stereo not drawn) [3-Chloro-4-{3,3,3-trifluoro-2-[1-(5-fluoro-2-methoxyphenyl)cyclopropylmethyl]-hydroxypropyl}benzonitrile], “activity as agonists”; as for `COc1ccc(F)cc1C(C)(C)CC(O)(Cc1ccc(/C=N/O)cc1Cl)C(F)(F)F` (stereo not drawn) [3-Chloro-4-[4-(5-fluoro-2-methoxyphenyl)-2-hydroxy-4-methyl-2-trifluoromethylpentyl]benzaldehyde oxime], “activity as agonists”. As for `CC(C)(CC(O)(Cc1ccc(C#N)cc1Cl)C(F)(F)F)c1cc(Br)cc2c1OCC2` (stereo not drawn) [4-[4-(5-Bromo-2,3-dihydrobenzofuran-7-yl)-2-hydroxy-4-methyl-2-trifluoromethylpentyl]-3-chlorobenzonitrile], the entry is “activity as agonists”; as for `COc1ccc(F)cc1C(C)(C)CC(O)(Cc1ccc(C(C)=O)cc1Cl)C(F)(F)F` (stereo not drawn) [1-{3-Chloro-4-[4-(5-fluoro-2-methoxyphenyl)-2-hydroxy-4-methyl-2-trifluoromethylpentyl]phenyl}ethanone], “activity as agonists”.

For `CC(C)(CC(O)(Cc1ccc(C#N)cc1Cl)C(F)(F)F)c1ccc(C(F)(F)F)cc1` (stereo not drawn) [3-Chloro-4-[2-hydroxy-4-methyl-2-trifluoromethyl-4-(4-trifluoromethylphenyl)pentyl]benzonitrile], the “activity” value is “activity as agonists”.
